Source: patent US20140128337A1, “Curcuminoids in Combination Docetaxel for the Treatment of Cancer and Tumour Metastasis” (Institut National de la Sante et de la Recherche Medicale …, priority 2009, published 2014)

Tests used:
[1] = tested on: advanced colorectal cancer; conditions: 36-180 mg/day; cited from earlier work
PAF synthesis = assay: PAF synthesis, incorporation of [3H]-acetate into lyso-PAF in MDCK-MDR1 cells; assay type: cell-based, canine; conditions: curcumin 30 min, doses observable in man
Protocol: PAF synthesis: PAF synthesis was measured by incorporation of [^3H]-acetate into lyso-PAF accordingly to the protocol described in (Bernatchez PN et al. Br. J. Pharmacol. 2001 134: 1252-1262 and Barthomeuf C. et al. Free Rad Biol Med 2006, 40: 581-590). […] The reaction was stopped by addition of acidified methanol. Polar lipids were isolated according to Bligh and Dyer. After solvent evaporation under N2, ^3H-PAF was purified by HPLC on silica gel, and quantified by radioactivity counting vs authentic ^3H-PAF.

[2] = tested on: panel of cancer lines issued from human solid tumors; assay: Antiproliferative effect on a panel of cancer lines, resazurin reduction test; assay type: cell-based; conditions: curcumin 10 uM
Protocol: (§1) Cell culture: Madine Darby canine kidney (MDCK-MDR1) cells, provided by Amanda Yancy (AstraZeneca Pharmaceuticals), were cultured in DMEM supplemented with 10% FBS as reported previously (Barthomeuf et al. 2005). Human primary fibroblasts were purchased from Biopredic International (Rennes, France). Human MCF7 (ER+breast), A549 (non small cell lung), PC3 (androgen-resistant prostate) DLD1 (colon), PA1 (ovary), MDA-mb-231 (ER-, PTEN positive), MDA-mb-468 (ER-, PTEN negative) carcinoma and U87 (glioblastoma) lines were purchased from the European Collection of Cell Cultures (ECACC,
(§2) Salibury, UK) or the American Type Culture Collection (ATCC, Manassas, Va.). Cells were cultured in modified Eagle's medium (MEM) supplemented with 10% fetal calf serum, 2 mM L-glutamine and 100 units/ml penicillin, and 100 μg/ml streptomycin (Barthomeuf et al. 2002) or MEM supplemented with 1 mM sodium pyruvate and containing 10% FBS and antibiotics (U-87). […]
The drugs were administered in DMSO 0.5%. Cell proliferation and attachment to the matrix were determined by measuring the amount of resazurin reduced by esterases from living cells (RTT assay) and by measuring the amount of attached biomass with the DNA binding agent (Ho 33342). Fluorescence was assayed at 590/630 nm (RTT assay) or 360/460 nm (Ho assay) as described in (Barthomeuf et al. Planta Med 2002). […]

U87 glioblastoma cells = assay: Curcumin/DTX co-treatment, cell proliferation and survival; assay type: cell-based, human; conditions: curcumin 10 uM + DTX 1 nM, 48 h co-treatment
Protocol: as §1, §2
(§3) The drugs were administered in DMSO 0.5%. Cell proliferation and attachment to the matrix were determined by measuring the amount of resazurin reduced by esterases from living cells (RTT assay) and by measuring the amount of attached biomass with the DNA binding agent (Ho 33342). Fluorescence was assayed at 590/630 nm (RTT assay) or 360/460 nm (Ho assay) as described in (Barthomeuf et al. Planta Med 2002).

HIF-1α = assay: Western blot of HIF-1α in MCF7 cells; assay type: cell-based, human
Protocol: Western blot: After treatment, control and treated cells were washed with PBS, then incubated in PBS containing 1 mM of each NaF and Na3VO4 and solubilized on ice in lysis buffer [150 mM NaCl, 10 mM Tris-HCl, pH 7.4, 1 mM EDTA, 1 mM EGTA, 1 mM NaF, 1 mM Na3VO4, 0.5% (v/v) Nonidet P-40, and 1% (v/v) Triton X-100] or in FosRipa buffer (10 mM Tris/HCl pH 7.5, 250 mM NaCl, 0.1% SDS, 1% Nonidet P40, 1% sodium deoxycholate). […] Protein concentrations and Western blotting was performed according to standard procedures. […] Mouse monoclonal antisera directed against HIF-1α or survivin were used as primary antibodies and horseradish peroxidase-coupled anti-mouse (Dako) as secondary antibodies.
Then HIF-1α was assessed by Western blotting.

[3] = tested on: MDA-mb-468 breast carcinoma cells; assay: Cell proliferation, resazurin reduction test (RTT assay); assay type: cell-based, human
Protocol: as §1
(§4) Salibury, UK) or the American Type Culture Collection (ATCC, Manassas, Va.). Cells were cultured in modified Eagle's medium (MEM) supplemented with 10% fetal calf serum, 2 mM L-glutamine and 100 units/ml penicillin, and 100 μg/ml streptomycin (Barthomeuf et al. 2002) or MEM supplemented with 1 mM sodium pyruvate and containing 10% FBS and antibiotics (U-87). The cells were cultured at 37° C. under a humidified 95%-5% (v/v) mixture of air and CO2.
as §3
(§5) The human tested lines include highly invasive U87 glioblastoma cells (SphK1 overexpression), 5 human carcinoma lines: weakly invasive MCF7 (estrogen receptor (ER) and PTEN positive) and metastatic MDA-mb-468 (ER and PTEN lack of function) breast carcinoma cells, metastatic PC3 (androgen resistant, p53 loss of function) prostate carcinoma cells, highly proliferative PA1 ovarian carcinoma cells and DLD1 (Pgp-positive) colon carcinoma cells. Primary fibroblasts were used as a model of human non-tumoral cells. Assays were conducted on exponentially growing human cells cultured overnight in MEM supplemented with 10% FBS. […] This supports a value of curcumin/DTX combination for treatment of tumors displaying these characteristics.

primary fibroblasts = assay: as above; assay type: cell-based, human; conditions: curcumin 10 uM
Protocol: as §1, §4, §3, §5

[4] = tested on: PA1 ovarian carcinoma cells; assay: as above; assay type: cell-based, human; conditions: curcumin 10 uM
Protocol: as §1, §4, §3, §5

P-glycoprotein (Pgp) = molecular target: T1, P-glycoprotein (Pgp) (Homo sapiens, UniProt P08183); assay: Inhibition of [3H]-VBL efflux by MDCK-MDR1 cells; assay type: cell-based; conditions: CV-3988 10 uM, 30-min pre-exposure
T1 construct: expressed in transfected cells; host or cells: MDCK (canine kidney) cells stably transfected with human MDR1
T1 sequence (P08183 whole entry): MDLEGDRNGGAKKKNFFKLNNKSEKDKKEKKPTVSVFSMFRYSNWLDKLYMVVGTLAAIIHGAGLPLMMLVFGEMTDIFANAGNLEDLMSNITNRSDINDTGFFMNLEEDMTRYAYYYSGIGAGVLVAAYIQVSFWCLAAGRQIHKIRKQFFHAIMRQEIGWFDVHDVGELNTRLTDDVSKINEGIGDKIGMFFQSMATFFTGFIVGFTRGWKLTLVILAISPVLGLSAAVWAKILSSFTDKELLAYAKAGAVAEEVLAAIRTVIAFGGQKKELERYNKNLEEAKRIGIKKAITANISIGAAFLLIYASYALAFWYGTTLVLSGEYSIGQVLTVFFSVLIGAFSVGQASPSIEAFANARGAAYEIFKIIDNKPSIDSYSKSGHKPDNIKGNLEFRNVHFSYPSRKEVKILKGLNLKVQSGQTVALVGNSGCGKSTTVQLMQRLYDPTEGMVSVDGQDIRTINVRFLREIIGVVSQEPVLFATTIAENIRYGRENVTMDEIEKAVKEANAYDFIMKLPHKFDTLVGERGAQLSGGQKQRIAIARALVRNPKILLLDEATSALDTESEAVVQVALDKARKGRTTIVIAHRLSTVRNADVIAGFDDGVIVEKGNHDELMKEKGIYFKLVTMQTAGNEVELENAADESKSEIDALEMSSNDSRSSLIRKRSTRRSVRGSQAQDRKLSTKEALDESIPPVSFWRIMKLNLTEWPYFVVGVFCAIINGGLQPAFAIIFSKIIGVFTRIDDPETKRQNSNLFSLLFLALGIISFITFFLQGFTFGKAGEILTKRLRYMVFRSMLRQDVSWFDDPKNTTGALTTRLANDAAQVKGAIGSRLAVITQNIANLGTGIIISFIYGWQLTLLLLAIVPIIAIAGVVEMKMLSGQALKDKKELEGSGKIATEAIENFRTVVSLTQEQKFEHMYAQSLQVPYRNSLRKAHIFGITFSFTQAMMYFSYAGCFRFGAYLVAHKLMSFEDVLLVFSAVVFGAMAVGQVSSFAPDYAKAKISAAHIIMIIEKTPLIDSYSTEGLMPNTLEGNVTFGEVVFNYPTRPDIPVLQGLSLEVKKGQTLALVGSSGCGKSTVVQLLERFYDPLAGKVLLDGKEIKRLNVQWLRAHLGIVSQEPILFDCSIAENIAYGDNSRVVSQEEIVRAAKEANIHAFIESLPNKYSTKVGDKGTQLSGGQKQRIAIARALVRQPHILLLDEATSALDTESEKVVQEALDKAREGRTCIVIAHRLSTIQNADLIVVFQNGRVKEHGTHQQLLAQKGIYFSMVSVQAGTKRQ
Protocol: Inhibition of [^3H]-VBL efflux by MDCK-MDR1 cells: [^3H]-VBL was determined by scintillation counting accordingly to (Barthomeuf et al. Cancer Chemother Pharmacol 2005; 56: 173-81). […] The cells were then exposed for 120 min to 20 nM of ^3H-VBL (0.23 μCi). ^3H-VBL accumulation was stopped by washing the cells (5-fold) with cold PBS (150 mM NaCl, 2.7 mM KCl, 1.3 mM KH2PO4, 8.1 mM, Na2HPO4, pH 7.4). The cells were lysed with 0.1% Triton X-100 and the radioactivity was counted.

survivin = assay: Western blot of survivin in MCF7 cells; assay type: cell-based, human; conditions: MCF7, DTX at clinical doses
Protocol: Western blot: After treatment, control and treated cells were washed with PBS, then incubated in PBS containing 1 mM of each NaF and Na3VO4 and solubilized on ice in lysis buffer [150 mM NaCl, 10 mM Tris-HCl, pH 7.4, 1 mM EDTA, 1 mM EGTA, 1 mM NaF, 1 mM Na3VO4, 0.5% (v/v) Nonidet P-40, and 1% (v/v) Triton X-100] or in FosRipa buffer (10 mM Tris/HCl pH 7.5, 250 mM NaCl, 0.1% SDS, 1% Nonidet P40, 1% sodium deoxycholate). When needed insoluble pellets were solubilized in Laemmli samples buffer (62.5 mM Tris-HCl pH 6.8, 2.4% SDS, 100 mM DDT, 10% glycerol, 1 mM EDTA, 0.001% bromphenol blue), heated for 5 min at 96° C. and centrifuged briefly before loading. Protein concentrations and Western blotting was performed according to standard procedures. Equal amounts of protein (50 μg) were loaded for separation via 7.5% SDS-PAGE. Mouse monoclonal antisera directed against HIF-1α or survivin were used as primary antibodies and horseradish peroxidase-coupled anti-mouse (Dako) as secondary antibodies.

MCF7 cells = assay: MCF7 cell survival, Ho assay; assay type: cell-based, human; conditions: DTX 5 uM (clinical dose), 72 h, P<0.01
Protocol: as §3
Treatment by DTX at clinical dose contributes to induction of drug resistance. […] We finally examined the effect of DTX on MCF7 cell survival and HIF-1 transcription. In this aim, DTX was tested at 2 concentrations 1 nM and 5 uM (a concentration representative of blood levels after DTX administration, Investigator Brochure 2002). Al tests were carried out on highly proliferative cells cultured in MEM medium supplemented with 10% FBS. Survival was assayed with the Ho assay after 6 h and 72 h.

[5] = DTX treatment alone; cited from earlier work

Structure (SMILES): COc1cc(/C=C/C(=O)CC(=O)/C=C/c2ccc(O)c(OC)c2)ccc1O [curcumin, (1E,6E)-1,7-bis (4-hydroxy-3-methoxyphenyl)-1,6-heptadiene-3,5-dione]
- stabilisation, patients [1]: 5/15
- PAF synthesis (PAF synthesis): down-regulation of PAF synthesis
- growth of all tested tumor lines [2]: strongly impairs the growth
- effect of co-treatment on DTX efficacy (U87 glioblastoma cells): enhances in a synergistic manner DTX efficacy
- HIF-1α level after curcumin post-treatment (HIF-1α; MCF7, DTX 5 uM 72 h, then 6 h EGF 10 ng/mL + MG-132 with or without curcumin 10 uM): lower amount of HIF-1α
- proliferation decreased ([3]; curcumin 10 uM): 23%
- effect of co-treatment on DTX efficacy ([3]; curcumin 10 uM + DTX 1 nM, 48 h co-treatment): enhances in a synergistic manner DTX efficacy
- toxicity for primary fibroblasts (primary fibroblasts): without significant toxicity
- proliferation of PA1 cells [4]: suppressed

Structure (SMILES): CCCCCCCCCCCCCCCCCCNC(=O)OCC(COP(=O)([O-])OCC[n+]1ccsc1)OC (stereo not drawn) [CV-3988]
- (3H)-VBL accumulation in MDCK-MDR1 cells (P-glycoprotein (Pgp)): promotes (^3H)-VBL accumulation

Structure (SMILES): CC(=O)O[C@@]12CO[C@@H]1C[C@H](O)[C@@]1(C)C(=O)[C@H](O)C3=C(C)[C@@H](OC(=O)[C@H](O)[C@@H](NC(=O)OC(C)(C)C)c4ccccc4)C[C@@](O)([C@@H](OC(=O)c4ccccc4)[C@H]21)C3(C)C [DTX, (2R,3S)-N-carboxy-3-phenylisoserine, N-tert-butyl ester, 13-ester with 5, 20-epoxy-1,2,4,7, 10, 13-hexahydroxytax-11-en-9-one 4-acetate 2-benzoate, trihydrate]
- survivin expression in surviving cells vs control (survivin): higher amount of survivin than control cells
- MCF7 survival decreased (MCF7 cells): 92%
- number of objective responses usually observed [5]: around 50%
- HIF-1α in resistant sub-populations vs control (HIF-1α; MCF7, DTX at clinical doses): higher amounts of HIF-1α than control cells
- HIF-1α in resistant sub-populations vs control (HIF-1α; MCF7, DTX at low concentration): less HIF-1α than control cells
